How the values were obtained:
Adenosine kinase = Adenosine kinase (Homo sapiens, UniProt P55263); test: Inhibition of recombinant human adenosine kinase
Rattus norvegicus = species: Rattus norvegicus; test: Evaluated for antiseizure activity in rat maximal electric shock (MES) seizure model and represented as ED50.; assay type: functional

Sequence of Adenosine kinase (P55263 whole entry): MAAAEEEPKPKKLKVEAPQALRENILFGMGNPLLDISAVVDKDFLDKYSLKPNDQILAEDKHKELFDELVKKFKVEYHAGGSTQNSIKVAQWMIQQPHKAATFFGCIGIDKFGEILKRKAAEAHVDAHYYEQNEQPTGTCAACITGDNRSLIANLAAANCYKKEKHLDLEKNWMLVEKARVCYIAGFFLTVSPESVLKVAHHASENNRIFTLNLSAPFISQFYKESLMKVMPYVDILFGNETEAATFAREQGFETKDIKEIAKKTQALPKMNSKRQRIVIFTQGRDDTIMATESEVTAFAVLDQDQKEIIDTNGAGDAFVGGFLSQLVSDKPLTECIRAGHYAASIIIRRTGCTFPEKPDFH

| Compound | IC50 (Adenosine kinase) | ED50 (Rattus norvegicus) |
| --- | --- | --- |
| NC[C@H]1O[C@@H](n2cnc3c(N)ncnc32)[C@H](O)[C@@H]1O | 170 nM | – |
| CSc1cn([C@@H]2O[C@H](C)[C@@H](O)[C@H]2O)c2ncnc(N)c12 | 1350 nM | – |
| [N-]=[N+]=NC[C@H]1O[C@@H](n2cc(I)c3c(N)ncnc32)[C@H](O)[C@@H]1O | 35 nM | – |
| CSc1cn([C@@H]2O[C@H](C)[C@@H](O)[C@H]2O)c2ncnc(Cl)c12 | 70 nM | – |
| CNc1ncnc2c1c(I)cn2[C@@H]1O[C@H](CO)[C@@H](O)[C@H]1O | 1200 nM | – |
| COC[C@H]1O[C@@H](n2cc(I)c3c(N)ncnc32)[C@H](O)[C@@H]1O | 1200 nM | – |
| NC[C@H]1O[C@@H](n2cc(I)c3c(N)ncnc32)[C@H](O)[C@@H]1O | 0.6 nM | 7.1 mg/kg |
| OC[C@H]1O[C@@H](n2cc(I)c3c(Cl)ncnc32)[C@H](O)[C@@H]1O | 24 nM | – |
| C[C@H]1O[C@@H](n2cc(I)c3c(Cl)ncnc32)[C@H](O)[C@@H]1O | 3 nM | – |
| NC[C@H]1O[C@@H](n2cc(I)c3c(Cl)ncnc32)[C@H](O)[C@@H]1O | 0.1 nM | – |
| C[C@H]1O[C@@H](n2cc(I)c3c(SCc4ccccc4)ncnc32)[C@H](O)[C@@H]1O | 1000 nM | – |
| C[C@H]1O[C@@H](n2cc(I)c3c(=S)[nH]cnc32)[C@H](O)[C@@H]1O | 6500 nM | – |
| [N-]=[N+]=NC[C@H]1O[C@@H](n2cc(I)c3c(Cl)ncnc32)[C@H](O)[C@@H]1O | 9 nM | – |
| Nc1ncnc2c1c(Br)cn2[C@@H]1O[C@H](CO)[C@@H](O)[C@H]1O | 120 nM | – |
| CCCCSc1ncnc2c1c(I)cn2[C@@H]1O[C@H](C)[C@@H](O)[C@H]1O | 1000 nM | – |
| CSc1ncnc2c1c(I)cn2[C@@H]1O[C@H](C)[C@@H](O)[C@H]1O | 45 nM | – |
| C[C@H]1O[C@@H](n2cc(I)c3c(SCc4ccc([N+](=O)[O-])cc4)ncnc32)[C@H](O)[C@@H]1O | 2000 nM | – |

| Compound | IC50 (Adenosine kinase) | ED50 (Rattus norvegicus) |
| --- | --- | --- |
| C=CCSc1ncnc2c1c(I)cn2[C@@H]1O[C@H](C)[C@@H](O)[C@H]1O | 2800 nM | – |
| CC[C@H]1O[C@@H](n2cc(Br)c3c(N)ncnc32)[C@H](O)[C@@H]1O | 500 nM | – |
| [N-]=[N+]=NC[C@H]1O[C@@H](n2cc(Br)c3c(N)ncnc32)[C@H](O)[C@@H]1O | 63 nM | – |
| CC[C@H]1O[C@@H](n2cc(I)c3c(N)ncnc32)[C@H](O)[C@@H]1O | 60 nM | – |
| C=C[C@H]1O[C@@H](n2cc(I)c3c(N)ncnc32)[C@H](O)[C@@H]1O | 100 nM | – |
| NC[C@H]1O[C@@H](n2ccc3c(N)ncnc32)[C@H](O)[C@@H]1O | 13000 nM | – |
| C[C@H]1O[C@@H](n2cc(Br)c3c(N)ncnc32)[C@H](O)[C@@H]1O | – | < 3.7 mg/kg |
| C[C@H]1O[C@@H](n2cc(Br)c3c(Cl)ncnc32)[C@H](O)[C@@H]1O | 50 nM | – |
| Nc1ncnc2c1c(Cl)cn2[C@@H]1O[C@H](CO)[C@@H](O)[C@H]1O | 210 nM | – |
| [N-]=[N+]=NC[C@H]1O[C@@H](n2cc(Br)c3c(Cl)ncnc32)[C@H](O)[C@@H]1O | 100 nM | – |
| C[C@H]1O[C@@H](n2cc(C#N)c3c(N)ncnc32)[C@H](O)[C@@H]1O | 310 nM | – |
| Cc1cn([C@@H]2O[C@H](C)[C@@H](O)[C@H]2O)c2ncnc(Cl)c12 | 535 nM | – |
| NC[C@H]1O[C@@H](n2cc(Br)c3c(N)ncnc32)[C@H](O)[C@@H]1O | 0.2 nM | 4.2 mg/kg |
| C[C@H]1O[C@@H](n2cc(I)c3c(N)ncnc32)[C@H](O)[C@@H]1O [5-IODO,5'-DEOXYTUBERCIDIN] | – | 0.3 mg/kg |
| Nc1ncnc2c1c(I)cn2[C@@H]1O[C@H](CO)[C@@H](O)[C@H]1O [IODOTUBERCIDIN] | – | 6 mg/kg |
| N#Cc1cn([C@@H]2O[C@H](CO)[C@@H](O)[C@H]2O)c2ncnc(N)c12 [TOYOCAMYCIN] | 310 nM | – |
| Nc1ncnc2c1ccn2[C@@H]1O[C@H](CO)[C@@H](O)[C@H]1O [TUBERCIDIN] | 10000 nM | – |

Reference: ChEMBL document CHEMBL1133459, “Adenosine kinase inhibitors. 1. Synthesis, enzyme inhibition, and antiseizure activity of 5-iodotubercidin analogues” (J Med Chem, 2000)
